Data on four compounds can be found in US9822089B2, “R type of resveratrol dimer, preparation process therefor and purpose thereof in lowering blood sugar level” (priority 2013, dated 2017).

For assay [1], the system named is sucrose-induced high blood sugar level of a mouse. Put plainly: orally-administered sucrose tolerance test for normal mice. It counts as in vivo. The note with it: for area under the sucrose tolerance test curve: FIG. 1, negative control group 21.0 mmol h/L; for blood glucose-lowering rate: compared with the negative control group; for lowering of sucrose-induced high blood sugar level of a mouse (in words): sucrose load; for Blood sugar concentration: drug 0.33 mg/ml suspension, 0.3 ml per 10 g intragastric 30 min before, x ± s, n = 10. As to the method: A mean body weight of mice was 22 g to 25 g. The mice were randomly divided into 6 groups, and each group included 10 animals. Each group of animals was intragastrically administered with a drug after 12 hours of fasting.
For a normal control group, a 0.5% CMC-Na solution whose volume is equal to that of a positive control group was administered.
For a negative control group, a 0.5% CMC-Na solution whose volume is equal to that of a positive control group was administered.
For an acarbose group, a 0.33 mg/ml acarbose suspension that was prepared by using a 0.5% CMC-Na solution was administered at a dosage of 0.3 ml per 10 g of weight.
For a TVN racemate group, a 0.33 mg/ml TVN racemate suspension that was prepared by using a 0.5% CMC-Na solution was administered at a dosage of 0.3 ml per 10 g of weight.
For a (S,S)-TVN group, a 0.33 mg/ml (S,S)-TVN suspension that was prepared by using a 0.5% CMC-Na solution was administered tat a dosage of 0.3 ml per 10 g of weight.
For a (R,R)-TVN group, a 0.33 mg/ml (R,R)-TVN suspension that was prepared by using a 0.5% CMC-Na solution was administered at a dosage of 0.3 ml per 10 g of weight.
After 30 min, animals in the groups other than the normal group were intragastrically administered with a 6.7% sucrose solution at a dosage of 0.3 ml per 10 g of weight, and animals in the normal group were intragastrically administered with water whose volume is equal to that of the sucrose solution. Orbital blood sampling was separately performed at four time points, namely 0 h, 0.5 h, 1 h, and 2 h after intragastric administration of the sucrose solution to the animals. Then, 2 μL of blood serum was taken after centrifugation and added into a 96-pore plate. Thereafter, 200 μL of a reagent from a glucose assay kit was further added thereinto and a 505 nm micro-plate reader was used to measure a value of absorbance. A blood sugar concentration was obtained from a standard curve. Refer to the table below:
All data was represented by using a mean value±a standard deviation (x±s). SPSS11.5 software was used for analysis, and data comparison was performed by means of a one-way analysis of variance. P<0.05 represents that there was a significant difference; and P<0.01 represents that there was an extremely significant difference.

A further assay relates to alpha-glucosidase. Conditions: in vitro; multiple of the activity of acarbose; cited from earlier work.
Setting [2] is: 0.5 h after intragastric sucrose.

As for `Oc1ccc([C@H]2Oc3ccc(/C=C/c4cc(O)cc(O)c4)cc3[C@@H]2c2cc(O)cc(O)c2)cc1` [(S,S)-TVN, (7S,8S)-trans-δ-viniferin], in assay [1], the “area under the sucrose tolerance test curve” value (“area” for short) worked out at 20.9 mmol·h/L and the “lowering of sucrose-induced high blood sugar level of a mouse (in words)” value (shortened to “lowering … (in words)”) is on record as “cannot significantly lower a sucrose-induced high blood sugar level of a mouse”. Besides, in assay [1] (at 0.5 h), the blood glucose-lowering rate turned out to be 0.08%. The same compound registered a blood glucose-lowering rate in assay [1] (at 1 h) of 3.01%.
Take `Oc1ccc([C@@H]2Oc3ccc(/C=C/c4cc(O)cc(O)c4)cc3[C@H]2c2cc(O)cc(O)c2)cc1` [(R,R)-TVN, (7R,8R)-trans-δ-viniferin]: in assay [1], the “area” value was 16.7 mmol·h/L; the “lowering … (in words)” value was “can significantly lower a sucrose-induced high blood sugar level of a mouse, and has a better effect than the TVN racemate”. In assay [1] (at 0.5 h), this compound came in with a blood glucose-lowering rate of 30.20%. In assay [1] (at 1 h), this compound showed a blood glucose-lowering rate of 22.79%.
Regarding `Oc1ccc(C2Oc3ccc(/C=C/c4cc(O)cc(O)c4)cc3C2c2cc(O)cc(O)c2)cc1` (racemic) [TVN racemate, trans-δ-viniferin], the Blood sugar concentration in assay [1] (0 h after intragastric sucrose) is 7.75 ± 1.57 mmol/L; in assay [1] (setting [2]), 10.34 ± 1.75 mmol/L; in assay [1] (1 h after intragastric sucrose) it was 9.07 ± 1.55 mmol/L; in assay [1] (2 h after intragastric sucrose), 8.83 ± 1.46 mmol/L. The “area” value in assay [1] is 18.3 mmol·h/L. Further, the values for the blood glucose-lowering rate in assay [1] (at 0.5 h) and in assay [1] (at 1 h) were 13.98% and 14.60%, respectively. Also, in assay [1], the “lowering … (in words)” value was “has a hypoglycemic activity between hypoglycemic activities of the both”. In addition, the “alpha-glucosidase inhibitory activity relative to acarbose” value in the assay with alpha-glucosidase is recorded as 254 times.
Regarding `C[C@H]1O[C@H](O[C@H]2[C@H](O)[C@@H](O)[C@@H](O[C@H]3[C@H](O)[C@@H](O)C(O)O[C@@H]3CO)O[C@@H]2CO)[C@H](O)[C@@H](O)[C@@H]1N[C@H]1C=C(CO)[C@@H](O)[C@H](O)[C@H]1O` (some centres unmarked) [Acarbose, acarbose], the Blood sugar concentration in assay [1] (0 h after intragastric sucrose) is 7.94 ± 1.25 mmol/L; in assay [1] (setting [2]) it was 9.74 ± 1.45 mmol/L; in assay [1] (1 h after intragastric sucrose) it was 8.32 ± 1.50 mmol/L; in assay [1] (2 h after intragastric sucrose) it was 8.54 ± 1.04 mmol/L. Besides, the blood glucose-lowering rate in assay [1] (at 0.5 h) came to 18.97%; in assay [1] (at 1 h), 21.66%.
